Data from US11014911B2, “CDK2 inhibitors” (Pfizer Inc., priority 2019, dated 2021).

Legend:
GSK3β (H350L) = GSK3β (H350L) (Homo sapiens (Human), UniProt P49841); settings: read-out: GSK3β Ki
Protocol: The assay was initiated with the addition of ATP, following 15 minutes pre-incubation of enzyme and inhibitor at room temperature in the reaction mixture. The reaction was stopped after 30 minutes at room temperature by the addition of 50 μL of 80 mM EDTA.

[1] = target: CDK2/Cyclin E1 full length (Homo sapiens (Human), UniProt P24941); test: CDK2/Cyclin E1 full length mobility shift assay; format: biochemical
Protocol: Cdk2/Cyclin E1 Full Length Mobility Shift Assay
Wild-type CDK2/wild-type full length Cyclin E1 enzyme complex was produced in-house (baculoviral expression, LJIC-2080/LJIC-2103) and phosphorylated by CDK7/Cyclin H1/Matl enzyme complex with CDK2:CDK7 ratio of 50:1 (concentration mg/mL) in the presence of 10 mM MgCl2 and 5 mM ATP at room temperature for one hour. […] The assay was initiated with the addition of ATP, following a fifteen minutes pre-incubation of enzyme and inhibitor at room temperature in the reaction mixture. The reaction was stopped after 45 minutes at room temperature by the addition of 50 μL of 80 mM EDTA.

Sequence of GSK3β (H350L) (P49841 whole entry, stated change not applied): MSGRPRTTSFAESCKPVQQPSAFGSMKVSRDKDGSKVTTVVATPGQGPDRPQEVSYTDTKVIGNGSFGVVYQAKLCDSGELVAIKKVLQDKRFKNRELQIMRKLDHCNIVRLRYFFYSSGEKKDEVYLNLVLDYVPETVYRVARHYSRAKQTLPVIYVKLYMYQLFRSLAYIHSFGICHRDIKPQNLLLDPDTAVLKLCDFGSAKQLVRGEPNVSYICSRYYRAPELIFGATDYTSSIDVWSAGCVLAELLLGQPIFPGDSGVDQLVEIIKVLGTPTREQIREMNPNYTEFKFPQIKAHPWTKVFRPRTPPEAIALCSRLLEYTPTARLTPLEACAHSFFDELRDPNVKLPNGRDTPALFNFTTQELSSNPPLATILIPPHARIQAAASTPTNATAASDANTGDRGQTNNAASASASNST

Row | Ki (GSK3β (H350L)) | Ki [1] | Compound
1 | > 191 nM | 1.37 nM | CCCNC(=O)O[C@H]1CC[C@@H](c2cc(NC(=O)c3ccnc(C)c3)n[nH]2)C1 [Example 170, (1S,3R)-3-(3-{[(2-methylpyridin-4-yl)carbonyl]amino}-1H-pyrazol-5-yl)cyclopentyl propylcarbamate]
2 | 35.7 nM | 0.36 nM | CC[C@H](C)NC(=O)O[C@@H]1CC[C@H](c2cc(NC(=O)Cc3cc(C)no3)n[nH]2)C1 [Example 32]
3 | > 191 nM | 0.23 nM | CCCNC(=O)O[C@H]1CC[C@@H](c2cc(NC(=O)Cc3cnc(C)s3)n[nH]2)C1 [Example 22]
4 | 45.4 nM | 0.04 nM | CC[C@H](C)NC(=O)O[C@@H]1CC[C@H](c2cc(NC(=O)c3ccnc4ncsc34)n[nH]2)C1 [Example 43]
5 | 18.2 nM | 1.73 nM | CCCNC(=O)O[C@H]1CC[C@@H](c2cc(NC(=O)Cc3ccccn3)n[nH]2)C1 [Example 171, (1S,3R)-3-{3-[(pyridin-2-ylacetyl)amino]-1H-pyrazol-5-yl}cyclopentyl propylcarbamate]
6 | 9.25 nM | 0.24 nM | CCCNC(=O)O[C@@H]1CC[C@H](c2cc(NC(=O)Cc3ccc4c(cnn4C)c3)n[nH]2)C1 [Example 54]
7 | 45.7 nM | 0.1 nM | CC[C@H](C)NC(=O)O[C@@H]1CC[C@H](c2cc(NC(=O)c3ccnn3CCO)n[nH]2)C1 [Example 53]
8 | 7 nM | 0.11 nM | Cc1cc(CC(=O)Nc2cc([C@H]3CC[C@@H](OC(=O)N4CCCCC4(C)C)C3)[nH]n2)on1 [Example 133]
9 | 31.6 nM | 0.2 nM | CC1(NC(=O)O[C@@H]2CC[C@H](c3cc(NC(=O)Cc4cc(Cl)ccn4)n[nH]3)C2)CC1 [Example 129]
10 | 8.35 nM | 0.25 nM | Cc1cc(CC(=O)Nc2cc([C@H]3CC[C@@H](OC(=O)N4[C@@H](C)C[C@@H]4C)C3)[nH]n2)on1 [Example 150]
11 | 32.2 nM | 0.25 nM | Cc1cnc(CC(=O)Nc2cc([C@H]3CC[C@@H](OC(=O)NC(C)(C)CC(F)(F)F)C3)[nH]n2)o1 [Example 95]
12 | 14.7 nM | 1.13 nM | CCN(C)C(=O)O[C@@H]1CC[C@H](c2cc(NC(=O)Cc3ccc(F)cc3)n[nH]2)C1 [Example 238, (1R,3S)-3-(3-{[(4-fluorophenyl)acetyl]amino}-1H-pyrazol-5-yl)cyclopentyl ethyl(methyl)carbamate]
13 | 8.57 nM | 0.78 nM | CO[C@@H]1CN(C(=O)O[C@@H]2CC[C@H](c3cc(NC(=O)Cc4cc(C)no4)n[nH]3)C2)[C@H]1C [Example 618, (1R,3S)-3-(3-{[(3-methyl-1,2-oxazol-5-yl)acetyl]amino}-1H-pyrazol-5-yl)cyclopentyl (2S,3R)-3-methoxy-2-methylazetidine-1-carboxylate]
14 | 11.4 nM | 0.38 nM | CCCNC(=O)O[C@H]1CC[C@@H](c2cc(NC(=O)Cc3cnc(OC)s3)n[nH]2)C1 [Example 189, (1S,3R)-3-(3-{[(2-methoxy-1,3-thiazol-5-yl)acetyl]amino}-1H-pyrazol-5-yl)cyclopentyl propylcarbamate]
15 | > 95.3 nM | 3 nM | CCCNC(=O)O[C@H]1CC[C@@H](c2cc(NC(=O)c3cn(C)nc3C)n[nH]2)C1 [Example 174, (1S,3R)-3-(3-{[(1,3-dimethyl-1H-pyrazol-4-yl)carbonyl]amino}-1H-pyrazol-5-yl)cyclopentyl propylcarbamate]
16 | 42.3 nM | 0.11 nM | CCC(C)(C)NC(=O)O[C@@H]1CC[C@H](c2cc(NC(=O)Cc3cnn(C)c3)n[nH]2)C1 [Example 61]
17 | 12.5 nM | 1.43 nM | COc1ccc(CC(=O)Nc2cc([C@@H]3CC[C@H](OC(=O)NC4CCOCC4)C3)[nH]n2)cc1 [Example 501, (1S,3R)-3-(3-{[(4-methoxyphenyl)acetyl]amino}-1H-pyrazol-5-yl)cyclopentyl tetrahydro-2H-pyran-4-ylcarbamate]
18 | 40.6 nM | 0.41 nM | CC(C)(C)NC(=O)O[C@@H]1CC[C@H](c2cc(NC(=O)Cc3cc(C(F)F)ccn3)n[nH]2)C1 [Example 314, (1R,3S)-3-[3-({[4-(difluoromethyl)pyridin-2-yl]acetyl}amino)-1H-pyrazol-5-yl]cyclopentyl tert-butylcarbamate]
19 | 7.12 nM | 0.12 nM | Cc1cc(CC(=O)Nc2cc([C@H]3CC[C@@H](OC(=O)N4CCCC4(C)C)C3)[nH]n2)on1 [Example 134]
20 | 27.4 nM | 1.62 nM | COc1ccc(CC(=O)Nc2cc([C@H]3CC[C@@H](OC(=O)NCC(F)F)C3)[nH]n2)cc1 [Example 250, (1R,3S)-3-(3-{[(4-methoxyphenyl)acetyl]amino}-1H-pyrazol-5-yl)cyclopentyl (2,2-difluoroethyl)carbamate]
21 | 4.31 nM | 1.25 nM | COc1cc(CC(=O)Nc2cc([C@@H]3CC[C@H](OC(=O)N[C@H]4CC[C@](C)(O)CC4)C3)[nH]n2)ccn1 [Example 569, (1S,3R)-3-(3-{[(2-methoxypyridin-4-yl)acetyl]amino}-1H-pyrazol-5-yl)cyclopentyl (trans-4-hydroxy-4-methylcyclohexyl)carbamate]
22 | 15.8 nM | 0.25 nM | CC1(C)CCN1C(=O)O[C@H]1CC[C@@H](c2cc(NC(=O)Cc3ccccc3S(C)(=O)=O)n[nH]2)C1 [Example 143]
23 | 92.5 nM | 0.33 nM | CC(C)NC(=O)O[C@@H]1CC[C@H](c2cc(NC(=O)Cc3cnn(C)c3)n[nH]2)C1 [Example 60]
24 | 9.7 nM | 0.81 nM | CCN(C)C(=O)O[C@@H]1CC[C@H](c2cc(NC(=O)Cc3ccnc(OC)c3)n[nH]2)C1 [Example 242, (1R,3S)-3-(3-{[(2-methoxypyridin-4-yl)acetyl]amino}-1H-pyrazol-5-yl)cyclopentyl ethyl(methyl)carbamate]
25 | 13 nM | 0.71 nM | CCCNC(=O)O[C@@H]1CC[C@H](c2cc(NC(=O)Cc3cnc(C)s3)n[nH]2)C1 [Example 185, (1R,3S)-3-(3-{[(2-methyl-1,3-thiazol-5-yl)acetyl]amino}-1H-pyrazol-5-yl)cyclopentyl propylcarbamate]
26 | 8.86 nM | 0.13 nM | Cc1ncc(CC(=O)Nc2cc([C@H]3CC[C@@H](OC(=O)NC4(C)CCCC4)C3)[nH]n2)s1 [Example 116]
27 | 102 nM | 1.2 nM | CCCNC(=O)O[C@H]1CC[C@@H](c2cc(NC(=O)c3cc(C)nn3C)n[nH]2)C1 [Example 172, (1S,3R)-3-(3-{[(1,3-dimethyl-1H-pyrazol-5-yl)carbonyl]amino}-1H-pyrazol-5-yl)cyclopentyl propylcarbamate]
28 | 24.4 nM | 0.33 nM | COc1ncc(CC(=O)Nc2cc([C@H]3CC[C@@H](OC(=O)NC(C)C)C3)[nH]n2)s1 [Example 281, (1R,3S)-3-(3-{[(2-methoxy-1,3-thiazol-5-yl)acetyl]amino}-1H-pyrazol-5-yl)cyclopentyl propan-2-ylcarbamate]
29 | 13.4 nM | 1.04 nM | CCN(C)C(=O)O[C@H]1CC[C@@H](c2cc(NC(=O)Cc3ccnc(OC)c3)n[nH]2)C1 [Example 241, (1S,3R)-3-(3-{[(2-methoxypyridin-4-yl)acetyl]amino}-1H-pyrazol-5-yl)cyclopentyl ethyl(methyl)carbamate]

Row | Compound | Ki (GSK3β (H350L)) | Ki [1]
30 | CC[C@H](C)NC(=O)O[C@@H]1CC[C@H](c2cc(NC(=O)c3ccc(C)nc3)n[nH]2)C1 [Example 324, (1R,3S)-3-(3-{[(6-methylpyridin-3-yl)carbonyl]amino}-1H-pyrazol-5-yl)cyclopentyl (2S)-butan-2-ylcarbamate] | 94.3 nM | 0.54 nM
31 | CCc1nn2cc(CC(=O)Nc3cc([C@H]4CC[C@@H](OC(=O)N[C@@H](C)CC)C4)[nH]n3)nc2s1 [Example 367, (1R,3S)-3-(3-{[(2-ethylimidazo[2,1-b][1,3,4]thiadiazol-6-yl)acetyl]amino}-1H-pyrazol-5-yl)cyclopentyl (2S)-butan-2-ylcarbamate] | 23.5 nM | 0.27 nM
32 | CC[C@H](C)NC(=O)O[C@@H]1CC[C@H](c2cc(NC(=O)Cc3scnc3C)n[nH]2)C1 [Example 342, (1R,3S)-3-(3-{[(4-methyl-1,3-thiazol-5-yl)acetyl]amino}-1H-pyrazol-5-yl)cyclopentyl (2S)-butan-2-ylcarbamate] | 40 nM | 0.74 nM
33 | COc1ccc(CC(=O)Nc2cc([C@H]3CC[C@@H](OC(=O)NC4(C)CC4)C3)[nH]n2)nc1 [Example 433, (1R,3S)-3-(3-{[(5-methoxypyridin-2-yl)acetyl]amino}-1H-pyrazol-5-yl)cyclopentyl (1-methylcyclopropyl)carbamate] | 17.1 nM | 0.5 nM
34 | CC[C@H](C)NC(=O)O[C@@H]1CC[C@H](c2cc(NC(=O)Cc3ccc(COC)cc3S(C)(=O)=O)[nH]n2)C1 [Example 376, (1R,3S)-3-[5-({[4-(methoxymethyl)-2-(methylsulfonyl)phenyl]acetyl}amino)-1H-pyrazol-3-yl]cyclopentyl (2S)-butan-2-ylcarbamate] | 99.3 nM | 0.4 nM
35 | CC[C@H](C)NC(=O)O[C@@H]1CC[C@H](c2cc(NC(=O)Cc3cncc(C)n3)n[nH]2)C1 [Example 336, (1R,3S)-3-(3-{[(6-methylpyrazin-2-yl)acetyl]amino}-1H-pyrazol-5-yl)cyclopentyl (2S)-butan-2-ylcarbamate] | 53.5 nM | 0.39 nM
36 | CC(C)NC(=O)O[C@@H]1CC[C@H](c2cc(NC(=O)c3cnnn3C)n[nH]2)C1 [Example 262, (1R,3S)-3-(3-{[(1-methyl-1H-1,2,3-triazol-5-yl)carbonyl]amino}-1H-pyrazol-5-yl)cyclopentyl propan-2-ylcarbamate] | > 47.6 nM | 0.64 nM
37 | CC[C@H](C)NC(=O)O[C@@H]1CC[C@H](c2cc(NC(=O)Cc3cnccn3)n[nH]2)C1 [Example 325, (1R,3S)-3-{3-[(pyrazin-2-ylacetyl)amino]-1H-pyrazol-5-yl}cyclopentyl (2S)-butan-2-ylcarbamate] | 54 nM | 0.81 nM
38 | COc1cc(CC(=O)Nc2cc([C@@H]3CC[C@H](OC(=O)N[C@H]4CC[C@@H](O)CC4)C3)[nH]n2)ccn1 [Example 552, (1S,3R)-3-(3-{[(2-methoxypyridin-4-yl)acetyl]amino}-1H-pyrazol-5-yl)cyclopentyl (cis-4-hydroxycyclohexyl)carbamate] | 2.41 nM | 0.29 nM
